Data as given in patent US20110093959A1, “CRYPTOTIS PARVA SCREENING MODEL FOR ANTIEMETIC POTENTIAL” (priority 2008, published 2011).

Tested on: Fos
Test: Fos expression in the dorsal vagal complex resulting from CIS-induced vomiting
Assay type: in vivo, Cryptotis parva
Conditions: CIS 10 mg/kg i.p.; vs vehicle in place of CIS
Procedure: After the appropriate time period for acute or delayed phase vomiting, shrews were anesthetized with a lethal dose of pentobarbital (100 mg/kg) and perfused transcardially via blunted needle with a peristaltic pump. The shrew was perfused with ice cold 4% paraformaldehyde and 5% picric acid in pH 7.4, 0.1 M phosphate buffer (10 min). Brains were removed and stored in 30% sucrose in 0.1 M PB overnight, then embedded in blocks of 12% gelatin in 30% sucrose/PB. The blocks were postfixed for 3 hr in 2% paraformaldehyde/PB, then rinsed and immersed in 30% sucrose/PB until they sank (usually 1-2 hr). The brain block was cut sagittally on a freezing benchtop microtome (Leica) at 30 μm into 5 series, and stored in PB with 0.03% sodium azide.
Immunolabeling was accomplished by blocking a free-floating series with 10% normal horse serum (NHS) and 3% hydrogen peroxide in PB with 0.3% Tri-ton X-100 (TX) for 30 min. After rinsing in PB, tissue was put in sheep anti-Fos polyclonal antibody (Chemicon/Millipore, Temecula, Calif.; 1:600), with 5% NHS and 0.3% TX in PB, and incubated for about 42 hr at room temperature (RT) with gentle shaking. After rinsing in PB, the tissue was placed in biotinylated donkey anti-sheep IgG secondary antibody (Jackson Immunoresearch, West Grove, Pa.; 1:600) diluted in the same diluent described for the primary antibody, and the tissue incubated at RT with shaking for 75 min Tissue was then rinsed and incubated for 60 min in HRP-conjugated avidin-biotin complex (Vector Labs, Burlingame, Calif.; Vectastain kit diluted 1:2) in PB. Tissue was then rinsed twice in PB, then once in imidazole-acetate buffer (0.1 M, pH 7.4), then reacted for 6 min in 0.0006% hydrogen peroxide with 2% nickel ammonium sulfate-enhanced diaminobenzidine (DAB, 0.05% in 0.1 M imidazole-acetate buffer). All reagents for DAB processing were purchased from Sigma-Aldrich. […]

N.N.[Cl][Pt][Cl] [CIS, cis-platinum(II)diamine dichloride]
Fos-IR in the DVC after CIS-induced vomiting: numerous Fos-IR nuclei
